Measured values taken from article PMC10467108, “Of Seven New K^+ Channel Inhibitor Peptides of Centruroides bonito, α-KTx 2.24 Has a Picomolar Affinity for Kv1.2” (Toxins, 2023).
“Also recorded” adds a separate entry of the source. Like-named read-outs stand apart in the source and are kept apart here. Where a SMILES comes first, the peptide text is derived from it. Bridges are numbered along the chain shown (N, C = ends).

Key:
Assay type in all cases: cell-based
[1] = molecular target: T1, hKv1.2 (Homo sapiens, UniProt P16389); test: Whole-cell patch-clamp of Kv1.2 currents in transiently transfected CHO cells
T1 construct: GFP (C); host or cells: CHO cells, transient transfection (Lipofectamine 2000)
Procedure: (§1) Macroscopic Kv1.1 and Kv1.2 currents were measured in transiently transfected CHO cells. For Kv1.3 current recording, human T lymphocytes were activated by Phytohemagglutinin A (PHA) to increase Kv1.3 channel expression, and micro-pipettes were filled with Ca^2+-free solution to prevent KCa3.1 channel activation. K^+ currents were evoked by applying 15-ms-long depolarization pulses to +50 mV from a holding potential of −120 mV except for Kv1.2, as it has highly variable activation kinetics; therefore, 15–500 ms-long pulses were applied to maximize the open probability of Kv1.2 channel. CboK peptide toxins were dissolved in a freshly prepared extracellular solution and applied to the whole-cell patch-clamped cells using a micro perfusion system at 200 μL/min flow rate.
(§2) CHO cells were transiently transfected by using Lipofectamine 2000 kit (Invitrogen, Carlsbad, CA, USA), as per the manufacturer’s protocol with vector pCMV6-AC-GFP (cat# RG211000 and RC222200; OriGene Technologies, Rockville, MD, USA) encoding hKv1.1 (hKCNA1 gene) or hKv1.2 (hKCNA2 gene) ion channels. Cells were grown under standard conditions in an incubator at 37 °C and 5% CO2 for 24 h. GFP-positive transfected cells were identified by utilizing a Nikon TMS fluorescence microscope (Nikon, Tokyo, Japan) using bandpass filters of 455–495 nm and 515–555 nm for excitation and emission, respectively.
(§3) The patch-clamp technique was used for measuring whole-cell currents in voltage-clamped mode using standard protocols. Electrophysiological recordings were acquired by using Multiclamp 700B amplifier connected to a personnel computer with an Axon Digidata1440 digitizer (Molecular Devices, Sunnyvale, CA, USA). Pipettes were pulled from GC150F-15 borosilicate capillaries (Harvard Apparatus, Kent, UK) having 3−5 MΩ tip resistance in the bath solution. All current recordings were carried out at room temperature (20−25 °C) and only those currents were recorded and subjected to analyses when the leak current at holding potential was <5% of peak current at the test potential. Current traces were lowpass-filtered by utilizing the built-in analog four-pole Bessel filters of the amplifiers and were sampled at 20 kHz which is at least twice the filter cut-off frequency. A gravity-driven perfusion system was used to perfuse the cells with control and test solutions and excess fluid was removed continuously through vacuum suction. The extracellular solution (bath solution) contained 145 mM NaCl, 5.5 mM glucose, 5 mM KCl, 2.5 mM CaCl2, 1 mM MgCl2, and 10 mM HEPES, having pH of 7.35 and an osmolarity between 302 and 308 mOsM/L. Toxins were dissolved in bath solution at different molar concentrations and supplemented with 0.1 mg/mL of bovine serum albumin BSA (Sigma-Aldrich, Budapest, Hungary). The intracellular solution (pipette filling) was comprised of 140 mM KF, 2 mM MgCl2, 1 mM CaCl2, 10 mM HEPES, and 11 mM EGTA, with a pH of 7.22 and an osmolarity of ~295 mOsM/L.
(§4) Generally, to evoke the Kv1.xcurrents, 15-ms-long depolarization pulses to +50 mV from a holding potential of −120 mV were applied, and the current traces were recorded after every 15 s. However, in the case of Kv1.2, due to its variable activation kinetics, the duration of the depolarization pulse was set between 15 and 500 ms to attain the saturated peak current.

[2] = molecular target: T2, hKv1.1 (Homo sapiens, UniProt Q09470); test: Whole-cell patch-clamp of Kv1.1 currents in transiently transfected CHO cells; conditions: for effect on Kv1.1 currents: 100 nM toxin; for Kd: this study, screened at 100 nM, read-out: Kd Values Kv1.1 (symbol)
T2 construct: host or cells: CHO cells, transient transfection (Lipofectamine 2000)
Procedure: as §1, §2, §3, §4

[3] = molecular target: T3, Kv1.3 (Homo sapiens, UniProt P22001); test: Whole-cell patch-clamp of Kv1.3 currents in PHA-activated human T lymphocytes; conditions: for Hill coefficient H, Kv1.3 block: Hill fit of isochronal RCF (4 ms)
T3 construct: endogenous in cells
Procedure: as §1
Isochronal RCF data points obtained this way (isochronal RCF = I4ms/I4ms,0 where I4ms,0 and I4ms are the currents at 4 ms time point in the absence and presence of CboK peptides, respectively) at different toxin concentrations were fitted with the Hill equation to obtain concentration–response curves as shown in Figure 6H.
Human peripheral venous blood was acquired from anonymous healthy volunteers from the blood bank. Blood samples were collected by having approval from the Ethical Committee of the Hungarian Medical Research Council (36255-6/2017/EKU). PBMCs were separated by Histopaque 1077 (Sigma-Aldrich, Budapest, Hungary) separation technique, and isolated cells, at the density of 5 × 10^5 cells, were cultured in RPMI 1640 media (Gibco, Grand Island, NY, USA) supplemented with 10% FBS (Sigma-Aldrich, Budapest, Hungary), 2 mM L-glutamine, […], and […] penicillin in a humidified incubator at 37 °C and 5% CO2 for 3–6 days. A measure of 2, 5, or 10 μg/mL of Phytohemagglutinin A (PHA) (Sigma-Aldrich, Budapest, Hungary) was added in cultured cells to activate the PBMCs and upregulate the Kv1.3 expression.
as §3, with “suction.” for “suction. The extracellular solution (bath solution) contained 145 mM NaCl, 5.5 mM glucose, 5 mM KCl, 2.5 mM CaCl2, 1 mM MgCl2, and 10 mM HEPES, having pH of 7.35 and an osmolarity between 302 and 308 mOsM/L. Toxins were dissolved in bath solution at different molar concentrations and supplemented with 0.1 mg/mL of bovine serum albumin BSA (Sigma-Aldrich, Budapest, Hungary). The intracellular solution (pipette filling) was comprised of 140 mM KF, 2 mM MgCl2, 1 mM CaCl2, 10 mM HEPES, and 11 mM EGTA, with a pH of 7.22 and an osmolarity of ~295 mOsM/L.”

[4] = Hill fit of RCF vs toxin concentration, n ≥ 3

T3 sequence (P22001 whole entry): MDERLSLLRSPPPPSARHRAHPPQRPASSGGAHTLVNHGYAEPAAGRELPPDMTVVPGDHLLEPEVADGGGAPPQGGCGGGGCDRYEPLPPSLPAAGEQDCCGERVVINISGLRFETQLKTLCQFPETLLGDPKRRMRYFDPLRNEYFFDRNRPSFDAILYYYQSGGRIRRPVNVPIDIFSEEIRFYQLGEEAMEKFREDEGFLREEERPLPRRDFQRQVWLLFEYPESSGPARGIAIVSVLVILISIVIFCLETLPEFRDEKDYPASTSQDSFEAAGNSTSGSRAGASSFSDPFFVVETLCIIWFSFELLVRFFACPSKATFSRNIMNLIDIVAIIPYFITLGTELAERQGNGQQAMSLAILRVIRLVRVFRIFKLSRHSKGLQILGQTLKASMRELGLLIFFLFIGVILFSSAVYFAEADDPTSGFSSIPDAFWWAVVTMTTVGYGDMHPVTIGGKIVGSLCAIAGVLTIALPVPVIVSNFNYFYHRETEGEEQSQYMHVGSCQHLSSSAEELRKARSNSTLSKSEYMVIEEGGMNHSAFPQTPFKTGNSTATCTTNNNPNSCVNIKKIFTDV
T1 sequence (P16389 whole entry): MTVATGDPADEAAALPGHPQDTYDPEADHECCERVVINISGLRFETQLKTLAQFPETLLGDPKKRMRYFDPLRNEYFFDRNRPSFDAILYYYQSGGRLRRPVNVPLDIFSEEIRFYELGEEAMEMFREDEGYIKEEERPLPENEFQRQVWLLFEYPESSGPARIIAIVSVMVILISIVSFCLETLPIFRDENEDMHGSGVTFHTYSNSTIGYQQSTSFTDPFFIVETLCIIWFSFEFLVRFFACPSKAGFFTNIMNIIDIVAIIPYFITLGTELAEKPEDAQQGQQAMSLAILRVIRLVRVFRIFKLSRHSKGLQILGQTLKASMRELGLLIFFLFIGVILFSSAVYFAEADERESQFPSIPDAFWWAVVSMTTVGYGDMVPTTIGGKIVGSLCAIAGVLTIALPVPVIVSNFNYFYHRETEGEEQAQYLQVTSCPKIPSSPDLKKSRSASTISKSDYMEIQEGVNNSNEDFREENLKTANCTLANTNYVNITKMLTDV
T2 sequence (Q09470 whole entry): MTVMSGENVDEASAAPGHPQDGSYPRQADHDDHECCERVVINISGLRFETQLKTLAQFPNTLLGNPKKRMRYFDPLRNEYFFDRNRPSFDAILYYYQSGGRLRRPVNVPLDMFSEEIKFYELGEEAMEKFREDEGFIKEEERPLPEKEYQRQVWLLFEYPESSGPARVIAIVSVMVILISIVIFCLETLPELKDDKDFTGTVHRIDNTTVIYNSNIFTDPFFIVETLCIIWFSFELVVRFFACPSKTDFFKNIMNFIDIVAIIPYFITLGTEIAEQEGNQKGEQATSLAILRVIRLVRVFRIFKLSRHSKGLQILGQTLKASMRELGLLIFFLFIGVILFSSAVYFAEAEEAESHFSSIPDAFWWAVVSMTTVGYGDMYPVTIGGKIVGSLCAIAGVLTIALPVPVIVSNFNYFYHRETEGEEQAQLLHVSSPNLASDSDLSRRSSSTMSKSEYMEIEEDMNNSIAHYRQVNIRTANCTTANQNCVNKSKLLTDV

## CC[C@H](C)[C@@H]1NC(=O)[C@@H]2CSSC[C@H](NC(=O)[C@H](CCCCN)NC(=O)[C@@H](NC(=O)[C@H](CC(N)=O)NC(=O)[C@@H](NC(=O)[C@@H](NC(=O)[C@@H](N)[C@@H](C)O)[C@@H](C)O)[C@@H](C)CC)C(C)C)C(=O)N[C@@H](CO)C(=O)N[C@@H](CC(C)C)C(=O)N3CCC[C@H]3C(=O)N[C@@H](CCC(N)=O)C(=O)N[C@@H](CCC(N)=O)C(=O)N[C@H]3CSSC[C@H](NC(=O)[C@H](CCCCN)NC(=O)CNC(=O)[C@H](CC(N)=O)NC1=O)C(=O)N[C@@H](CCCCN)C(=O)N[C@H](C(=O)N[C@@H](Cc1ccc(O)cc1)C(=O)N1CCC[C@H]1C(=O)O)CSSC[C@H](NC(=O)[C@@H]1CCCN1C(=O)[C@H](CCCNC(=N)N)NC(=O)[C@H](CC(C)C)NC3=O)C(=O)N[C@@H](CCCCN)C(=O)N[C@@H](CC(=O)O)C(=O)N[C@@H](CCCNC(=N)N)C(=O)N[C@@H](Cc1ccccc1)C(=O)NCC(=O)N[C@@H](CCC(N)=O)C(=O)N[C@@H](Cc1c[nH]cn1)C(=O)N[C@@H](C)C(=O)NCC(=O)NCC(=O)N[C@@H](CCCCN)C(=O)N2 [CboK6] (H-TTINVKCSLPQQCLRPCKDRFGQHAGGKCINGKCKCYP-OH; disulfide 7-29, 13-34, 17-36 (inferred); N-terminus and C-terminus assumed)
[1]; Hill fit of RCF vs toxin concentration, cumulative application, equilibrium block, pulses to +50 mV from -120 mV, n ≥ 3, read-out: Kd for Kv1.2
  Kd: 0.585 nM
[1]; [4]
  Hill coefficient H, Kv1.2 block: 1.3
[2]
  effect on Kv1.1 currents: does not block
  Kd: > 100 nM
[3]; n ≥ 3
  Hill coefficient H, Kv1.3 block: 0.77
[3]; Hill fit of isochronal RCF (current at 4 ms), 15-ms pulses to +50 mV from -120 mV, n ≥ 3, read-out: Kd for Kv1.3
  Kd: 160 nM

## CC[C@H](C)[C@@H]1NC(=O)[C@@H]2CSSC[C@H](NC(=O)[C@H](C)NC(=O)[C@@H](NC(=O)[C@@H](N)CC(N)=O)C(C)C)C(=O)N[C@@H](C(C)C)C(=O)N[C@@H](Cc3c[nH]cn3)C(=O)N[C@@H](CCCNC(=N)N)C(=O)N[C@@H]([C@@H](C)O)C(=O)N[C@H]3CSSC[C@H](NC(=O)[C@H](CCCCN)NC(=O)[C@H](CCCNC(=N)N)NC(=O)[C@H](CC(N)=O)NC1=O)C(=O)N[C@@H](CC(N)=O)C(=O)N[C@H](C(=O)N[C@@H](Cc1ccc(O)cc1)C(=O)N1CCC[C@H]1C(=O)N[C@@H](Cc1c[nH]cn1)C(=O)O)CSSC[C@H](NC(=O)[C@H](CC(N)=O)NC(=O)[C@H](CO)NC(=O)[C@H](CC(=O)O)NC3=O)C(=O)N[C@@H](CCCCN)C(=O)N[C@@H](CCCNC(=N)N)C(=O)N[C@@H](CC(N)=O)C(=O)NCC(=O)N[C@@H](Cc1ccc(O)cc1)C(=O)N[C@@H](CCCCN)C(=O)N[C@@H](CO)C(=O)NCC(=O)N[C@@H](CCCCN)C(=O)N2 [CboK1] (H-NVACVHRTCDSNCKRNGYKSGKCINRKCNCYPH-OH; disulfide 4-23, 9-28, 13-30)
[1]; 100 nM toxin
  effect on Kv1.2 currents: totally insensitive; also recorded: did not show any effect
[1]; this study, CboK1 tested at 100 nM, read-out: Kd Values Kv1.2 (symbol)
  Kd: > 100 nM
[2]
  effect on Kv1.1 currents: did not show any effect
  Kd: > 100 nM
[3]; 100 nM toxin
  effect on Kv1.3 currents: did not show any effect
[3]; 100 nM toxin, equilibrium block, screening summary (Figure 4F), n ≥ 3
  inhibition of Kv1.3 currents: less than 4%
[3]; this study, screened at 100 nM, read-out: Kd Values Kv1.3 (symbol)
  Kd: > 100 nM

## CC[C@H](C)[C@H](NC(=O)[C@H](Cc1ccccc1)NC(=O)[C@@H](N)[C@@H](C)O)C(=O)N[C@@H](CC(N)=O)C(=O)N[C@H](C(=O)N[C@@H](CCCCN)C(=O)N[C@H]1CSSC[C@@H]2NC(=O)[C@H](CCCCN)NC(=O)[C@H](CCC(=O)O)NC(=O)CNC(=O)[C@H](C)NC(=O)[C@H](Cc3c[nH]cn3)NC(=O)[C@@H]3CCCN3C(=O)CNC(=O)[C@H](Cc3ccc(O)cc3)NC(=O)[C@H](CC(C)C)NC(=O)[C@H](CC(=O)O)NC(=O)[C@H](CCCCN)NC(=O)[C@@H]3CSSC[C@@H](C(=O)N[C@@H](Cc4ccc(O)cc4)C(=O)N[C@@H](CCCCN)C(=O)N[C@H](C(=O)O)C(C)C)NC(=O)[C@H](CCCCN)NC(=O)[C@H](CSSC[C@H](NC(=O)[C@H](CCC(N)=O)NC(=O)[C@H](CCCCN)NC(=O)[C@@H]4CCCN4C(=O)[C@H](CO)NC(=O)[C@H]([C@@H](C)O)NC1=O)C(=O)N[C@@H](CC(C)C)C(=O)N[C@@H](CCCCN)C(=O)N1CCC[C@H]1C(=O)N3)NC(=O)[C@H](CCCCN)NC(=O)CNC(=O)[C@H](CC(N)=O)NC(=O)[C@H](CCSC)NC2=O)C(C)C [CboK7] (H-TFINVKCTSPKQCLKPCKDLYGPHAGEKCMNGKCKCYKV-OH; disulfide 7-29, 13-34, 17-36)
[1]; [4]
  Hill coefficient H, Kv1.2 block: 1.3
[3]; n ≥ 3
  Hill coefficient H, Kv1.3 block: 0.8

## CC[C@H](C)[C@H](NC(=O)[C@@H](N)[C@@H](C)O)C(=O)N[C@H](C(=O)N[C@@H](CC(N)=O)C(=O)N[C@H](C(=O)N[C@@H](CCCCN)C(=O)N[C@H]1CSSC[C@@H]2NC(=O)[C@H](CCCCN)NC(=O)[C@H](CCC(=O)O)NC(=O)CNC(=O)[C@H](C)NC(=O)[C@H](Cc3c[nH]cn3)NC(=O)[C@@H]3CCCN3C(=O)CNC(=O)[C@H](Cc3ccc(O)cc3)NC(=O)[C@H](CC(C)C)NC(=O)[C@H](CC(=O)O)NC(=O)[C@H](CCCCN)NC(=O)[C@@H]3CSSC[C@@H](C(=O)N[C@@H](Cc4ccc(O)cc4)C(=O)N[C@@H](CCCCN)C(=O)N[C@H](C(=O)O)C(C)C)NC(=O)[C@H](CCCCN)NC(=O)[C@H](CSSC[C@H](NC(=O)[C@H](CCC(N)=O)NC(=O)[C@H](CCCCN)NC(=O)[C@@H]4CCCN4C(=O)[C@H](CO)NC(=O)[C@H]([C@@H](C)O)NC1=O)C(=O)N[C@@H](CC(C)C)C(=O)N[C@@H](CCCCN)C(=O)N1CCC[C@H]1C(=O)N3)NC(=O)[C@H](CCCCN)NC(=O)CNC(=O)[C@H](CC(N)=O)NC(=O)[C@H](CCSC)NC2=O)C(C)C)[C@@H](C)CC [CboK3] (H-TIINVKCTSPKQCLKPCKDLYGPHAGEKCMNGKCKCYKV-OH; disulfide 7-29, 13-34, 17-36)
[1]; [4]
  Hill coefficient H, Kv1.2 block: 1.2
[3]; 5, 15, 40, 100, 350 nM toxin
  time for onset of steady-state block and complete recovery, Kv1.3: ~ 1 min
[3]; n ≥ 3
  Hill coefficient H, Kv1.3 block: 0.96
[3]; wash with toxin-free external solution
  reversibility of Kv1.3 block: fully reversible
